≈ marks a conversion by molar mass, not a printed value. Read-outs that look alike come from different tables or passages of the source.
Experiments:
E. coli (ATCC 25922) = assay: Broth microdilution (serial double dilution) MIC/MBC; type: cell-based, Escherichia coli; details: for MIC / MBC: Escherichia coli; for MIC: ATCC25922, 24 h, 37 °C, micro-broth dilution; for MBC: ATCC25922, micro-broth dilution
Protocol: (§1) S. aureus (ATCC® 29213™), B. subtilis (ATCC® 6633™), E. coli (ATCC® 25922™), P. aeruginosa (ATCC® 27853™), C. albicans (ATCC® 10231™), and C. glabrata (ATCC® 2001™) were cultured onto sterile Mueller-Hinton agar plates, and incubated at 37 °C for 24 h. After incubation, a single colony was selected to inoculate a sterile tube containing 2 mL of sterile normal saline to match the turbidity of a 0.5 McFarland standard (10^8 cfu/mL). Further dilution was done with sterile normal saline to 10^5 cfu/mL before incubation.
(§2) Serial dilution of the synthesized compounds suspension in DMSO (2000–15.62 μg/mL) was done in a sterile 96-well plate. Then, 20 μL of an overnight bacterial and fungal suspension and 180 μL of the compounds suspension in MHB (and 1% glucose for fungal strains) were mixed in each well. The final concentration of DMSO was 10%. After 24 h of incubation at 37 °C, the first concentration with no bacterial growth is regarded as the minimum inhibitory concentration (MIC). Controls (microorganism strain in MHB without chemical and MHB alone) were included in each measurement. Aliquots of 5 μL from wells in which no growth was observed were spotted onto Mueller–Hinton agar plates to determine the minimum bactericidal concentration (MBC) values. The MBC was read as the lowest concentration with no growth after 24 h of incubation.

[1] = system: P. aeruginosa (ATCC 27853); assay: as above; type: cell-based, Pseudomonas aeruginosa; details: for MIC: ATCC27853, 24 h, 37 °C, micro-broth dilution
Protocol: as §1, §2

B. subtilis (ATCC 6633) = assay: as above; type: cell-based; details: Bacillus subtilis; for MIC: ATCC6633, 24 h, 37 °C, micro-broth dilution
Protocol: as §1, §2

S. aureus (ATCC 29213) = assay: as above; type: cell-based; details: Staphylococcus aureus
Protocol: as §1, §2

Saos-2 cell line [2] = assay: MTT cytotoxicity assay; type: cell-based, human; details: for IC50: Homo sapiens, Saos-2, MTT, 48 h, read-out: In vitro cytotoxic activity IC50; for anti-cancer effect: Saos-2, especially at 2.5–20 μg/mL
Protocol: (§3) The colorimetric MTT assay, introduced by Mossmann, was used for the evaluation of the anti-cancer activity of our synthesized compounds against Saos-2 and MG-63 cell lines (human bone cancer cells). These cells were obtained from the Pasteur Institute of Iran, Tehran, Iran and maintained in RPMI 1640 medium supplemented with 10% FBS and 1% benzylpenicillin/streptomycin. […] The cells without treatment were considered as the control. After 48 h, the medium was removed and replaced with 200 μL of fresh medium containing 100 μg mL^−1 MTT powder and incubated for a further 4 h. The medium was then withdrawn and 100 μL of DMSO was added to dissolve the formazan crystals inside the cells. The absorbance of solubilized formazan was detected at 570 nm with the reference wavelength of 630 nm using an ELISA plate reader (Stat Fax, 2100, Awareness Technology Inc., Palm City, FL, USA). The viability of cells in each well was calculated by the following formula:(1) viability of cells (%)=mean absorbance of sample/mean absorbance of control×100.

MG-63 cell line = assay: MTT cytotoxicity assay; type: cell-based, human; details: for IC50: Homo sapiens, MG-63, MTT, 48 h, read-out: In vitro cytotoxic activity IC50; for anti-cancer effect: MG-63, especially at 2.5–20 μg/mL
Protocol: as §3

C. albicans (ATCC 10231) [3] = assay: Broth microdilution (serial double dilution) MIC/MBC; type: cell-based, Candida albicans; details: for MIC: 37 °C, micro-broth dilution
Protocol: as §1, §2

C. glabrata (ATCC 2001) = assay: as above; type: cell-based, Candida glabrata; details: 24 h, 37 °C, micro-broth dilution
Protocol: as §1, §2

Saos-2 cell line [4] = system: Saos-2 cell line; set-up: method as in PMID 31649917; details: Saos-2, thiosemicarbazide ligand and metal derivatives; cited from earlier work
C. albicans (ATCC 10231) [5] = system: C. albicans (ATCC 10231); set-up: method as in PMID 31649917; details: cited from earlier work
Saos-2 cells = assay: DAPI staining, morphology of cell nuclei; type: cell-based, human; details: Saos-2, 48 h exposure at IC50
Protocol: To visually study the apoptotic effects of the synthesized compounds (L and its Co, Ni, Cu, and Zn complexes), the 4′,6-diamidino-2-phenylindole (DAPI) staining assay was performed according to the literature procedure. Briefly, Saos-2 cells were seeded in six-well plates (5 × 10^4 cells per well) and incubated at 37 °C for 24 h. After the growth of the cells, the culture media were replaced by fresh media containing L and its metal derivatives (sterile filtered through 500 nm) at their half-maximal inhibitory growth concentration (IC50). Cells receiving no treatment were considered as the control group. After 48 h, the cells were washed three times with fresh PBS (pH 7.4) to remove any chemical compounds. Subsequently, the cells were fixed with 4 wt% paraformaldehyde for 15 min at room temperature. Afterwards, the cells were washed three times with PBS and permeabilized with Triton X-100 (0.1% w/v) for 5 min. The cells were washed again with PBS and stained with 300 ng mL^−1 DAPI for 15 min. DNA condensation and fragmentation in apoptotic cells were evaluated under a fluorescence microscope.

Row | Compound | MIC (E. coli (ATCC 25922)) | MBC (E. coli (ATCC 25922)) | MIC ([1]; Pseudomonas aeruginosa) | MIC (B. subtilis (ATCC 6633)) | IC50 (Saos-2 cell line [2]) | anti-cancer effect (Saos-2 cell line [2]) | IC50 (MG-63 cell line) | anti-cancer effect (MG-63 cell line) | further results
1 | CNC(C)C1CCC(N)C(OC2C(N)CC(N)C(OC3OCC(C)(O)C(NC)C3O)C2O)O1 (stereo not shown) [Gentamicin] | 0.5 µg/mL (≈ 1.05 µM) | 0.5 µg/mL (≈ 1.05 µM) | 2 µg/mL (≈ 4.19 µM) | 2 µg/mL (≈ 4.19 µM) | – | – | – | – | MBC ([1]; Pseudomonas aeruginosa, ATCC27853, micro-broth dilution): 2 µg/mL (≈ 4.19 µM); MBC (B. subtilis (ATCC 6633); ATCC6633, micro-broth dilution): 2 µg/mL (≈ 4.19 µM); MIC (S. aureus (ATCC 29213); ATCC29213, 24 h, 37 °C, micro-broth dilution): 0.12 µg/mL (≈ 0.251 µM); MBC (S. aureus (ATCC 29213); ATCC29213, micro-broth dilution): 0.25 µg/mL (≈ 0.523 µM)
2 | COc1cccc2c1C(=O)c1c(O)c3c(c(O)c1C2=O)C[C@@](O)(C(=O)CO)C[C@@H]3O[C@H]1C[C@H](N)[C@H](O)[C@H](C)O1 [DOX, doxorubicin] | – | – | – | – | 2.1 µg/mL (≈ 3.86 µM) | strong anti-cancer effects | 10.1 µg/mL (≈ 18.6 µM) | strong anti-cancer effects | –
3 | C[C@@H]1[C@H](O)[C@@H](C)/C=C/C=C/CC/C=C/C=C/C=C/C=C/C(O[C@H]2O[C@H](C)[C@@H](O)[C@H](N)[C@@H]2O)CC2O[C@](O)(CC(O)C(O)CCC(O)CC(O)CC(O)CC(=O)O[C@H]1C)CC(O)C2C(=O)O (stereo partly shown) [Nystatin] | – | – | – | – | – | – | – | – | MIC (C. albicans (ATCC 10231) [3]; 24 h): 1.25 µg/mL (≈ 1.35 µM); MIC (C. glabrata (ATCC 2001)): 0.625 µg/mL (≈ 0.675 µM)
4 | Bisthiosemicarbazide-substituted p-tert-butylcalix[4]arene [thiosemicarbazide ligand] | – | – | – | – | – | – | – | – | IC50 (Saos-2 cell line [4]): > 200 µg/mL; antifungal activity (C. albicans (ATCC 10231) [5]): resistant
5 | CC(C)(C)c1cc2c(O)c(c1)Cc1cc(C(C)(C)C)cc(c1OCCNC(=S)NN=Cc1ccccc1O)Cc1cc(C(C)(C)C)cc(c1O)Cc1cc(C(C)(C)C)cc(c1OCCNC(=S)NN=Cc1ccccc1O)C2 [Ligand L, 5, 11, 17, 23-tetra-tert-butyl-26, 28-dihydroxy-25, 27-bis(2(2-hydroxybenzeledene)thiosemicarbazonoethoxy) calix[4]arene] | 31.2 µg/mL (≈ 28.6 µM) | 31.2 µg/mL (≈ 28.6 µM) | 31.2 µg/mL (≈ 28.6 µM) | 31.2 µg/mL (≈ 28.6 µM) | < 25 µg/mL | – | > 200 µg/mL | – | improvement of MIC in comparison with thiosemicarbazide equivalent (E. coli (ATCC 25922)): 8 fold; melting point: 230 °C (dec.); improvement of MIC in comparison with thiosemicarbazide equivalent [1]: 2 fold; antifungal activity (C. albicans (ATCC 10231) [3]): strong; MIC (C. albicans (ATCC 10231) [3]; Candida albicans, ATCC10231, 24 h, read-out: MIC): 31.2 µg/mL (≈ 28.6 µM); MBC (C. albicans (ATCC 10231) [3]; Candida albicans, ATCC10231, micro-broth dilution): 125 µg/mL (≈ 115 µM); antifungal activity (C. albicans (ATCC 10231) [3]; listed as thiosemicarbazone schiff-base ligand): significant antifungal activity; morphology of cell nuclei (DAPI-stained cells) (Saos-2 cells): deformed and fragmented nuclei
6 | CN(Cc1cnc2nc(N)nc(N)c2n1)c1ccc(C(=O)N[C@@H](CCC(=O)O)C(=O)O)cc1 [MTX, Methotrexate] | – | – | – | – | 7.9 µg/mL (≈ 17.4 µM) | strong anti-cancer effects | 14.5 µg/mL (≈ 31.9 µM) | strong anti-cancer effects | –

— publication PMC7024204, “Synthesis, Crystal Structure, and Biological Activity of a Multidentate Calix[4]arene Ligand Doubly Functionalized by 2-Hydroxybenzeledene-Thiosemicarbazone” (Molecules, 2020)
